Test results from patent publication US20110152227A1, “DEUTERIUM LABELLED DERIVATIVES OF 3-(2-HYDROXY-5-METHYPHENYL)-N,N-DIISOPROPYL-3-PHENYLPROPYLAMINE AND METHODS OF USE THEREOF” (CONCERT PHARMACEUTICALS INC., priority 2008, published 2011).
Like-named read-outs stand apart in the source and are kept apart here.

Experiment: Evaluation of metabolic stability in human liver microsomes
Assay type: in vitro ADME
Conditions: for half-life at 1 μM: human, human liver microsomes; for half-life in human liver microsomes as compared to tolterodine: result in words, versus tolterodine
Procedure: Materials: Human liver microsomes (20 mg/mL) were obtained from Xenotech, LLC (Lenexa, Kans.). β-nicotinamide adenine dinucleotide phosphate, reduced form (NADPH), magnesium chloride (MgCl2), and dimethyl sulfoxide (DMSO) were purchased from Sigma-Aldrich.
The 7.5 mM stock solutions were diluted to 50 μM in acetonitrile (ACN). The 20 mg/mL human liver microsomes were diluted to 0.625 mg/mL in 0.1 M potassium phosphate buffer, pH 7.4, containing 3 mM MgCl2. The diluted microsomes were added to wells of a 96-well deep-well polypropylene plate in duplicate. Ten μL of one of the […] test compound solutions was added to the microsomes and the mixture was pre-warmed for 10 minutes. Reactions were initiated by addition of pre-warmed NADPH solution. The final reaction volume was 0.5 mL and contained 0.5 mg/mL human liver microsomes, 1 μM test compound, and 2 mM NADPH in 0.1 M potassium phosphate buffer, pH 7.4, and 3 mM MgCl2. The reaction mixtures were incubated at 37° C., and 50 μL aliquots were removed at 0, 5, 10, 20, and 30 minutes and added to shallow-well 96-well plates which contained 50 μL of ice-cold ACN with internal standard to stop the reactions. The plates were stored at 4° C. for 20 minutes after which 100 μL of water was added to the wells of the plate before centrifugation to pellet precipitated proteins. Supernatants were transferred to another 96-well plate and analyzed for amounts of parent remaining by LC-MS/MS using an Applied Bio-systems API 4000 mass spectrometer. 7-ethoxy coumarin (1 μM) was used as a positive control. The experiment was repeated as second time to confirm the results.
Data analysis: The in vitro t1/2s for test compounds were calculated from the slopes of the linear regression of % parent remaining (ln) vs incubation time relationship using the following formula: in vitro t1/2=0.693/k, where k=−[slope of linear regression of % parent remaining (ln) vs incubation time]. Data analysis was performed using Microsoft Excel Software.

[1] = pH 7.4, average of Experiment 1 and 2, human liver microsomes, read-out: Ave t1/2
[2] = pH 7.4, human liver microsomes 0.5 mg/mL, 1 μM test compound, 2 mM NADPH, 37° C., 0-30 minutes, Experiment 1, read-out: t1/2 (minutes) Experiment 1
[3] = pH 7.4, human liver microsomes 0.5 mg/mL, 1 μM test compound, 2 mM NADPH, 37° C., 0-30 minutes, Experiment 2 (repeat), read-out: t1/2 (minutes) Experiment 2

half-life at 1 μM [1] | half-life at 1 μM [2] | half-life at 1 μM [3] | half-life in human liver microsomes as compared to tolterodine | SMILES
25.8 min | 23.5 min | 28 min | substantially increased half-life | [2H]C([2H])([2H])c1ccc(O)c([C@H](CCN(C([2H])(C([2H])([2H])[2H])C([2H])([2H])[2H])C([2H])(C([2H])([2H])[2H])C([2H])([2H])[2H])c2ccccc2)c1 [Compound 100]
15.1 min | 14.6 min | 15.6 min | – | [2H]C([2H])([2H])C([2H])(N(CC[C@H](c1ccccc1)c1cc(C)ccc1O)C([2H])(C([2H])([2H])[2H])C([2H])([2H])[2H])C([2H])([2H])[2H] [Compound 106, (R)-2-(3-(Di(isopropyl-d7)amino)-1-phenylpropyl)-4-methylphenol]
13.8 min | 13.4 min | 14.2 min | – | Cc1ccc(O)c(C(CCN(C(C)C)C(C)C)c2ccccc2)c1 (centres unmarked) [Tolterodine, 3-(2-hydroxy-5-methylphenyl)-N,N-diisopropyl-3-phenylpropylamine, reference compound]
26.6 min | 24.3 min | 28.9 min | substantially increased half-life | [2H]C([2H])([2H])c1ccc(O)c([C@H](CCN(C(C)C)C(C)C)c2ccccc2)c1 [Compound 112]
